Measurements as given in the NIST ThermoML archive (doi:10.1021/acs.jced.5b00330).
± gives the expanded uncertainty stated by the source.

Tests used:
[1] = Solid-liquid equilibrium temperature; conditions: Crystal, High pressure microscope
[2] = Crystal

Row | SMILES | Solid-liquid equilibrium temperature ([1]; 100 kPa) | Solid-liquid equilibrium temperature ([1]; 20000 kPa) | Solid-liquid equilibrium temperature ([1]; 40000 kPa) | Solid-liquid equilibrium temperature ([1]; 60000 kPa) | Solid-liquid equilibrium temperature ([1]; 80000 kPa) | Normal melting temperature ([2]; DTA) | Normal melting temperature ([2]; High pressure microscope) | Normal melting temperature ([2]; High Pressure microscope)
1 | CCCCCCCCCCCCCCCCO [1-hexadecanol] | 322.2 ± 0.4 K | 327.3 ± 0.5 K | 332.4 ± 0.5 K | 337.6 ± 0.5 K | 342.7 ± 0.5 K | 49.7 ± 1.3 °C | 49.1 ± 1.4 °C | 
2 | CCCCCCCCCCCCCCCCCCO [1-octadecanol] | 330.9 ± 0.4 K | 335.8 ± 0.5 K | 340.9 ± 0.5 K | 345.9 ± 0.5 K | 350.6 ± 0.5 K | 58.2 ± 1.3 °C |  | 57.8 ± 1.4 °C
3 | CCCCCCCCCCCCCCO [1-tetradecanol] | 310.6 ± 0.4 K | 314.2 ± 0.5 K | 319 ± 0.5 K | 323.8 ± 0.5 K | 327.8 ± 0.5 K | 37.8 ± 1.3 °C | 37.5 ± 1.4 °C | 
4 | CCCCCCCCCCCCO [dodecan-1-ol] | 296.9 ± 0.4 K | 300.5 ± 0.5 K | 304.6 ± 0.5 K | 308.4 ± 0.5 K | 311.7 ± 0.5 K | 24.7 ± 1.3 °C |  | 23.8 ± 1.4 °C
